Measurements reported in patent publication US7563946B2, “Plant development regulating gene and its uses” (CropDesign, N.V., priority 2000, dated 2009).

Key:
DR5::GUS [1] = assay: Auxin sensitivity test, DR5::GUS expression in hbt mutant seedlings; type: in vivo, Arabidopsis thaliana
From the text: (§1) However, new methods to detect auxin responses have emerged, for example with synthetic auxin responsive promoter elements binding ARF transcription factors, such as DR5::GUS (Ulmasov et al., 1997). Since there is also a resemblance of the hbt early embryo phenotype to axr6, bdl and mp mutants (Hardtke and Berleth, 1998; Hamann et al., 1999; Hobbie et al 2000), we used the DR5::GUS construct to re-investigated auxin responses in hbt seedlings. In wildtype seedling roots there is a maximum of DR5::GUS staining in the upper part of the columella (FIG. 17A). This peak is absent in hbt seedlings (FIG. 17F) where no GUS staining is visible. Since the specification of the columella cells is defective in hbt seedlings, we wanted to know whether hbt mutant cells are capable of sensing auxin. Therefore, hbt seedlings were incubated for 3 days on media containing different concentrations of the synthetic auxin 2,4 D, and DR5::GUS expression was analysed. […] It is therefore possible that the HBT gene has a role in the perception of auxin levels.
(§2) DR5::GUS expression in wt roots (A-E) and in hbt seedlings […]. Three days post germination seedlings were transferred to 0.5 GM plates (A and F) and 0.5 GM plates containing 10^−9 M 2,4 D (B and G), 10^−8 M 2,4 D (C and H), 10^−7 M 2,4 D (D and I) and 10^−6 M 2,4 D (E and J) and incubated for another three days. Mutants are shown at 10× magnification of the wildtype seedling.
(§3) DR5::GUS constructs was used (Ulmasov et al., 1997b). Seedlings were germinated on 0.5 GM medium as described, 3 dpg transferred to fresh 0.5 GM plates containing different concentrations of 2,4 D or IAA (5.10^−9 M until 5.10^−6 M) (see FIG. 17) and incubated for an additional 3 days. After that the b-glucuronidase was visualized as described (Willemsen et al., 1998).

DR5::GUS [2] = assay: Auxin sensitivity test, DR5::GUS expression in wildtype seedlings; type: in vivo, Arabidopsis thaliana; conditions: 3 days on medium
From the text: as §1, §2, §3

hbt seedlings = hbt seedlings treated with ethylene

Structure (SMILES) | DR5::GUS expression in hbt hypocotyls (DR5::GUS [1]; 5.10^-6 M, 3 days on medium) | DR5::GUS expression in hbt root pole (DR5::GUS [1]; 5.10^-7 M, 3 days on medium) | DR5::GUS staining in hbt seedlings (DR5::GUS [1]; 5.10^-9 M until 5.10^-8 M, 3 days on medium) | DR5::GUS expression in hbt embryos compared to wildtype (DR5::GUS [1]; embryos, after induction) | Auxin sensitivity of hbt seedlings (synthetic auxin response element) (DR5::GUS [1]; hbt seedlings versus wildtype) | DR5::GUS expression in wildtype hypocotyls (DR5::GUS [2]; 5.10^-6 M) | DR5::GUS expression in wildtype root (DR5::GUS [2]; 5.10^-7 M) | DR5::GUS expression in wildtype roots (DR5::GUS [2]; 5.10^-9 M until 5.10^-8 M) | Re-specification of epidermal cells on the hypocotyl (hbt seedlings)
O=C(O)COc1ccc(Cl)cc1Cl [2,4 D] | strong DR5 expression | a DR5 peak in the root pole of hbt | no staining observed | no differences compared to wildtype | altered auxin sensitivity | never observed any ectopic DR5 expression | quite intense and throughout the entire root | ectopic expression of the DR5::GUS promoter in the meristem of wildtype roots | 
C=C [ethylene] |  |  |  |  |  |  |  |  | a large number of ectopic outgrowths was induced
